Blank lines part the entries; values can stand above or below the compound they belong to.
How the values were obtained:
Experiment in all cases: Off-chip Mobility Shift Assay (MSA) kinase inhibition
Format in all cases: biochemical
[1] = target: T1, RET(S891A) (Homo sapiens, UniProt P07949, S891A)
T1 construct: purchased Carna Biosciences
Method: (§1) Off-chip Mobility Shift Assay (MSA) by Cama Biosciences, Inc (Natick, Mass.) a used for measuring the kinase activity and inhibition. • 1) The 5 μL of x4 compound solution, 5 μL of x4 Substrate/ATP/Metal solution, and 10 μL of x2 kinase solution were prepared with assay buffer (20 mM HEPES, 0.01% Triton X100, 2 mM DTT, pH 7.5) and mixed and incubated in a well of polypropylene 384 well microplate for 1 or 5 hour(s)* at room temperature. (*; depending on kinase) • 2) 70 μL of Termination Buffer (QuickScout Screening Assist A; Cama Biosciences) was added to the welt • 3) The reaction mixture was applied to LabChip system (Perkin Elmer), and the product and substrate peptide peaks were separated and quantitated. • 4) The kinase reaction was evaluated by the product ratio calculated from peak heights of product (P) and substrate (S) peptides (P/(P+S)). • 5) The reaction conditions were followed according to assay protocols of Ca n Biosciences, Inc (BMA 3F, 1-5-5 Minatojima-Minamimachi, Chuo-ku, Kobe 650-0047, Japan; www.carnabio.com). • 6 Data analysis: The readout value of reaction control (complete reaction mixture) was set as a 0% inhibition, and the readout value of background (Enzyme (−)) was set as a 100% inhibition, then the percent inhibition of each test solution was calculated, […]

[2] = target: T2, PDGFRα(V561D) (Homo sapiens, UniProt P16234, V561D)
T2 construct: purchased Carna Biosciences
T2 sequence (P16234 24-1089 V561D): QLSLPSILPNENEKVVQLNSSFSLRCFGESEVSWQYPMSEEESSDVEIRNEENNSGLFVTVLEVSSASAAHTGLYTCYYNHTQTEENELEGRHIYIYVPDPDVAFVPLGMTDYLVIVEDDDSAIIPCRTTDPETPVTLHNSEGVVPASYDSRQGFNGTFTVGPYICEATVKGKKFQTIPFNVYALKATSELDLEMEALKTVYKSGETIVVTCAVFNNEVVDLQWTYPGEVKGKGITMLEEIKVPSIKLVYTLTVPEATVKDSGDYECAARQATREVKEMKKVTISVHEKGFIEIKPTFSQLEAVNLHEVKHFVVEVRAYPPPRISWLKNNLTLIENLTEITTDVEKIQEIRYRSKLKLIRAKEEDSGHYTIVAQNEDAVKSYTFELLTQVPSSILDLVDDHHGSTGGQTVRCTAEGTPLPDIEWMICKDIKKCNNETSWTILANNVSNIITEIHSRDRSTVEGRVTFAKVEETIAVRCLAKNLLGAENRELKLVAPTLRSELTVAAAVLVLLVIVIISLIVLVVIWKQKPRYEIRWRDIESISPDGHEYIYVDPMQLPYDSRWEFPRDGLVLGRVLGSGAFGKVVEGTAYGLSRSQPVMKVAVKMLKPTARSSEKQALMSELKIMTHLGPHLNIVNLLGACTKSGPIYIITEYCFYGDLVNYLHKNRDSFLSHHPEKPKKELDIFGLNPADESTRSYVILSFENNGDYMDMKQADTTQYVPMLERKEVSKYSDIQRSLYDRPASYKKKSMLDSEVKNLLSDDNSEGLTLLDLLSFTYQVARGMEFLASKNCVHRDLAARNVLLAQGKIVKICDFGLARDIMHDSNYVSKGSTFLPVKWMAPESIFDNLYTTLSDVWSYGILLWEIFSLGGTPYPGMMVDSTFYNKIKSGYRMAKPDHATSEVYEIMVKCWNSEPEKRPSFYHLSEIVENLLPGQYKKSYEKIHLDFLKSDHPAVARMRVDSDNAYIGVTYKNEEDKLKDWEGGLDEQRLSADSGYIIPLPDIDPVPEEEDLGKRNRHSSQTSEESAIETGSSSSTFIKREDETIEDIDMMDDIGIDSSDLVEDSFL
Method: as §1

[3] = target: T3, MAP2K7 (Homo sapiens, UniProt O14733); conditions: inhibitor concentration 1 μM
T3 construct: purchased Carna Biosciences
Method: as §1

[4] = target: T4, PDGFRα(T674I) (Homo sapiens, UniProt P16234, T674I)
T4 construct: purchased Carna Biosciences
T4 sequence (P16234 24-1089 T674I): as the sequence (P16234 24-1089 V561D) above, with D538V, T651I counted along it
Method: as §1

[5] = target: T5, BLK (Homo sapiens, UniProt P51451)
T5 construct: purchased Carna Biosciences
T5 sequence (P51451 whole entry): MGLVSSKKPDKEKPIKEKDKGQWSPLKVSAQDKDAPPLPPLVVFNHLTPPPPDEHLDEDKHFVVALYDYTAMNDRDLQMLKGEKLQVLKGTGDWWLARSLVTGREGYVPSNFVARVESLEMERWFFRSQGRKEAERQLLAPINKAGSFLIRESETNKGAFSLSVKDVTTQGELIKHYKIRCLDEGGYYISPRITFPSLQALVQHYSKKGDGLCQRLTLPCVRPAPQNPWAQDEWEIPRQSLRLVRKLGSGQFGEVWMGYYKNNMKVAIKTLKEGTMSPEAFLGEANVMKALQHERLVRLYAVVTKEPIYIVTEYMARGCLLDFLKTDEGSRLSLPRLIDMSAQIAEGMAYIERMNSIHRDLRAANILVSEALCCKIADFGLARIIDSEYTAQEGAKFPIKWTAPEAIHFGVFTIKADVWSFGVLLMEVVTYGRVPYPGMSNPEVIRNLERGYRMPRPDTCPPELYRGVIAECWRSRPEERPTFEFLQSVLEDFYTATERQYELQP
Method: as §1

[6] = target: T6, PDGFRα(D842V) (Homo sapiens, UniProt P16234, D842V)
T6 construct: purchased Carna Biosciences
T6 sequence (P16234 24-1089 D842V): as the sequence (P16234 24-1089 V561D) above, with D538V, D819V counted along it
Method: as §1

[7] = target: T7, PKD2 (Homo sapiens, UniProt Q9BZL6); conditions: inhibitor concentration 1 μM
T7 construct: purchased Carna Biosciences
Method: as §1

[8] = target: T8, FYN(isoform a) (Homo sapiens, UniProt P06241)
T8 construct: purchased Carna Biosciences
T8 sequence (P06241 whole entry, canonical isoform): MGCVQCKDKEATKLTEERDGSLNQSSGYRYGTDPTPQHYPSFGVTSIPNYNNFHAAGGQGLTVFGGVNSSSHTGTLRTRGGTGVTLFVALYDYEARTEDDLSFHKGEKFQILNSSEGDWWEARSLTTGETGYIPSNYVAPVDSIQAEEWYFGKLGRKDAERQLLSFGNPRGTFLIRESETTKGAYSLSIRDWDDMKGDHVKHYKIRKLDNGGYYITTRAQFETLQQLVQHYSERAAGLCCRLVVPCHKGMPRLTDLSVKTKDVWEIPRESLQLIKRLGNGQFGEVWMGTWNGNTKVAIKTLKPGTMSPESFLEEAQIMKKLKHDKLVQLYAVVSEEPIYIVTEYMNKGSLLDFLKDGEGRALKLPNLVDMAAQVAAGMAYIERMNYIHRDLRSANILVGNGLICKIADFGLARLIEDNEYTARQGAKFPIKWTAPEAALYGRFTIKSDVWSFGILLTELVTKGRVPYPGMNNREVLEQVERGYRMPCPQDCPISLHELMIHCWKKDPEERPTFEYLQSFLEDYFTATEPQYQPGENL
Method: as §1

[9] = target: T9, DDR2 (Homo sapiens, UniProt Q16832)
T9 construct: purchased Carna Biosciences
T9 sequence (Q16832 22-855): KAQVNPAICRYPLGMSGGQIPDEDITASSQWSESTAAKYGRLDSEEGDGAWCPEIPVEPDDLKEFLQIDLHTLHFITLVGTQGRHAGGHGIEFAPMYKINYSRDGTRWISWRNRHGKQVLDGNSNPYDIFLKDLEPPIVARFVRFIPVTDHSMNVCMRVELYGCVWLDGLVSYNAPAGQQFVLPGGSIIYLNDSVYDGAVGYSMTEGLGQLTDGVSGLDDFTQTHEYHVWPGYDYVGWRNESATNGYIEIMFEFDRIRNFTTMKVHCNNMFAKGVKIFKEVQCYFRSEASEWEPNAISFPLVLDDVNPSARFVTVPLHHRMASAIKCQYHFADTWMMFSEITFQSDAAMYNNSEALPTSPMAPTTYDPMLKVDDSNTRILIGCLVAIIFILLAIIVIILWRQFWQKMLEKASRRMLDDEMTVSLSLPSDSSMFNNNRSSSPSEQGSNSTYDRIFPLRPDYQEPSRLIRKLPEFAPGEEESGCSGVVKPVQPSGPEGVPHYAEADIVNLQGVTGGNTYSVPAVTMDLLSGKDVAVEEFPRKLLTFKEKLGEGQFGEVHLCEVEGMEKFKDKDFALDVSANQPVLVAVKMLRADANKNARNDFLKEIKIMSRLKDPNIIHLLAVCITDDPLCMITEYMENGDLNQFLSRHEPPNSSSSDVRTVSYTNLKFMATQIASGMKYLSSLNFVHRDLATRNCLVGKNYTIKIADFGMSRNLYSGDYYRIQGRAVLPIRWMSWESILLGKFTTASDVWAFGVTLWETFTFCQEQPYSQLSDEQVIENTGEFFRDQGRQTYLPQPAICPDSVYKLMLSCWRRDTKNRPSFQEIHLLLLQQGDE
Method: as §1

[10] = target: T10, FLT1 (Homo sapiens, UniProt P17948); conditions: inhibitor concentration 1 μM
T10 construct: purchased Carna Biosciences
Method: as §1

[11] = target: T11, HER2 (Homo sapiens, UniProt P04626); conditions: for inhibition at 0.1 µM: inhibitor concentration 0.1 μM
T11 construct: purchased Carna Biosciences
T11 sequence (P04626 23-1255): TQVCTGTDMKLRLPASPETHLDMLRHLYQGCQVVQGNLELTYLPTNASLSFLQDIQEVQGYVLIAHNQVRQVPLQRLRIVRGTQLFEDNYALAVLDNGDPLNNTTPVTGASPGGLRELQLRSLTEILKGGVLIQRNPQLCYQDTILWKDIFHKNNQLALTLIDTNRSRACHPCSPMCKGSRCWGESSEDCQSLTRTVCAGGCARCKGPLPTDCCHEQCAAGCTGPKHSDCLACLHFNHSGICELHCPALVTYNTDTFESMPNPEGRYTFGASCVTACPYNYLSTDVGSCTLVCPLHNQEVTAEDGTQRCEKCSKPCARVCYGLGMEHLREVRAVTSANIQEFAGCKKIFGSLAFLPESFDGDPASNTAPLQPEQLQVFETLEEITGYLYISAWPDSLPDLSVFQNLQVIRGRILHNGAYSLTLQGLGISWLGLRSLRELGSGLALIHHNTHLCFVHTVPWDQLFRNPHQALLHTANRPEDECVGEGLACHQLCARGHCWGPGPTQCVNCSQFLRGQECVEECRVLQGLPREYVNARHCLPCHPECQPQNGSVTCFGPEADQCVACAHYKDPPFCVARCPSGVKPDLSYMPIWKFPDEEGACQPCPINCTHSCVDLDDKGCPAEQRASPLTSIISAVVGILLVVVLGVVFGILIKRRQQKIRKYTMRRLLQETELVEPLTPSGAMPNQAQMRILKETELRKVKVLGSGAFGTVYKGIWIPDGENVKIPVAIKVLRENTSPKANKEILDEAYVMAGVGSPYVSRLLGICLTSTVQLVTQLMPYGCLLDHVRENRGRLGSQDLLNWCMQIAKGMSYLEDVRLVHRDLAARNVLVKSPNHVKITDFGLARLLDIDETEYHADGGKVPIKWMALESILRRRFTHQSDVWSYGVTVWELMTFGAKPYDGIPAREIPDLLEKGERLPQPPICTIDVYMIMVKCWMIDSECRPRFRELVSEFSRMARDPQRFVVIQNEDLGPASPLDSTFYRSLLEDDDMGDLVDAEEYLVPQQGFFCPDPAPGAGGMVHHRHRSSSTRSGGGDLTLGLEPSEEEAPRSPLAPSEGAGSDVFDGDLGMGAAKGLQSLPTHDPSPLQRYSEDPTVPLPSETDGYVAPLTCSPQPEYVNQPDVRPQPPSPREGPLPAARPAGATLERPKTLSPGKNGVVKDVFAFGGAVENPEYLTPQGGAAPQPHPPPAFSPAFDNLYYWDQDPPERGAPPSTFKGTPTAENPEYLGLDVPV
Outline: (§2)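 Off-chip mobility shift read-out of kinase activity. Buffer: 20 mM HEPES pH 7.5, 0.01% Triton X100, 2 mM DTT; compound, substrate/ATP/metal and kinase incubated 1 or 5 h at RT.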

[12] = target: T12, AurA (Homo sapiens, UniProt O14965); conditions: for inhibition at 0.1 µM: inhibitor concentration 0.1 μM
T12 construct: purchased Carna Biosciences
T12 sequence (O14965 1-403): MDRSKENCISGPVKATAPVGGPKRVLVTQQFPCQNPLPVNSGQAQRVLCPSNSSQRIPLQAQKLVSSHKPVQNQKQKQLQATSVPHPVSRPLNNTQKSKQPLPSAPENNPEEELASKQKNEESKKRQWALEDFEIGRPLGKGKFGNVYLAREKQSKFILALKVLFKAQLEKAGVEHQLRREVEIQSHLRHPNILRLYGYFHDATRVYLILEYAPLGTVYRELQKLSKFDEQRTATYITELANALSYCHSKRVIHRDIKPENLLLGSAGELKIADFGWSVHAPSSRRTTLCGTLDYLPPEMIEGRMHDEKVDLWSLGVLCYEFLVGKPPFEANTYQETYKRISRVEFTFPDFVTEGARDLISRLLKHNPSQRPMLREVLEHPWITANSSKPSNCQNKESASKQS
Outline: as §2

[13] = target: T13, PIM3 (Homo sapiens, UniProt Q86V86); conditions: inhibitor concentration 0.1 μM
T13 construct: purchased Carna Biosciences
Outline: as §2

[14] = inhibitor concentration 0.01 μM
[15] = inhibitor concentration 0.01 μM, 0.01 µM

T1 sequence (P07949 29-1114 S891A): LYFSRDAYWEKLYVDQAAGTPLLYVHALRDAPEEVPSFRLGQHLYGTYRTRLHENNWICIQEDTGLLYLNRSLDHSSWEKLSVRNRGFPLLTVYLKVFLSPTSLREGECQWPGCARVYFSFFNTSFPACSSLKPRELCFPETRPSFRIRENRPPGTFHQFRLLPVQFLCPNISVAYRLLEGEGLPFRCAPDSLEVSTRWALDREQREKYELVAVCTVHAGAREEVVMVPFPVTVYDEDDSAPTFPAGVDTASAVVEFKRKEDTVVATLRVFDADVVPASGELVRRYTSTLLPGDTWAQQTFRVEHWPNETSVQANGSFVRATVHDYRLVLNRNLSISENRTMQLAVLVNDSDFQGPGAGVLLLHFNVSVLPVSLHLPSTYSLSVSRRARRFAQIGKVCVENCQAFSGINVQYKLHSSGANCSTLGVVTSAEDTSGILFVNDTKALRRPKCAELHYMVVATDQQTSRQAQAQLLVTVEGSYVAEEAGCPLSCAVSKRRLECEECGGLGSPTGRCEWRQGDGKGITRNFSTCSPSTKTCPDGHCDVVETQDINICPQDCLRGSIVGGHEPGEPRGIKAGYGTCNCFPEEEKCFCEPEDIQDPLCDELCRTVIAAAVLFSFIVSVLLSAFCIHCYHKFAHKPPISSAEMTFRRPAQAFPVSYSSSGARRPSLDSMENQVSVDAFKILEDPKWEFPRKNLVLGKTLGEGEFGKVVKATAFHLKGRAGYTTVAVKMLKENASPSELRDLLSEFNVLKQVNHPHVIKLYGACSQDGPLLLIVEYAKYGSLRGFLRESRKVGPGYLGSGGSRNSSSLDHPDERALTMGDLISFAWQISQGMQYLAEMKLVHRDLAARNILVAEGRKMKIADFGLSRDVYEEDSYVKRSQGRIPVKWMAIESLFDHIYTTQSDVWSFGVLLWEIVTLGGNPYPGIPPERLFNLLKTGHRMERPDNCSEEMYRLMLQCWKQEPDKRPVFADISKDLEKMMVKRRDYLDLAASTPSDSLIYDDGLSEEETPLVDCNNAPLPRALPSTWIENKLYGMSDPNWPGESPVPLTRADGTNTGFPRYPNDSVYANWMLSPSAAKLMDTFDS

SMILES: C/C=C/S(=O)(=O)Nc1ccc(F)c(C(=O)c2c[nH]c3ncc(-c4ccc(Cl)cc4)cc23)c1F [200-93b]
PDGFRα(V561D) inhibition [2, 15]: <20%
PDGFRα(T674I) inhibition [4, 15]: <20%
PDGFRα(D842V) inhibition [6, 15]: <20%

SMILES: CC(O)CS(=O)(=O)Nc1ccc(F)c(C(=O)c2c[nH]c3ncc(-c4ccc(Cl)cc4)cc23)c1F (stereo not shown) [200-115]
inhibition at 0.1 µM [11]: < 30%
inhibition at 0.1 µM [12]: < 30%
inhibition at 0.1 µM [13]: < 30%

SMILES: CC(=O)CS(=O)(=O)Nc1ccc(F)c(C(=O)c2c[nH]c3ncc(-c4ccc(Cl)cc4)cc23)c1F [200-117]
inhibition at 0.1 µM [11]: < 30%
inhibition at 0.1 µM [12]: < 30%
inhibition at 0.1 µM [13]: < 30%

Continued, values first:

inhibition at 0.01 µM [1, 14]: < 30%
inhibition at 0.1 µM ([1]; inhibitor concentration 0.1 μM): > 50%
inhibition at 1 µM ([1]; inhibitor concentration 1 μM): > 50%
inhibition at 0.01 µM [2, 14]: < 30%
inhibition at 0.1 µM ([2]; inhibitor concentration 0.1 μM): > 50%
inhibition at 1 µM ([2]; inhibitor concentration 1 μM): > 50%
inhibition at 1 µM [3]: < 50%
inhibition at 1 µM ([4]; inhibitor concentration 1 μM): < 50%
inhibition at 0.01 µM [5, 14]: < 30%
inhibition at 0.1 µM ([5]; inhibitor concentration 0.1 μM): > 50%
inhibition at 1 µM ([5]; inhibitor concentration 1 μM): > 50%
inhibition at 1 µM ([6]; inhibitor concentration 1 μM): > 50%
inhibition at 1 µM [7]: < 50%
inhibition at 0.01 µM [8, 14]: < 30%
inhibition at 0.1 µM ([8]; inhibitor concentration 0.1 μM): < 50%
inhibition at 1 µM ([8]; inhibitor concentration 1 μM): > 50%
inhibition at 0.01 µM [9, 14]: < 30%
inhibition at 0.1 µM ([9]; inhibitor concentration 0.1 μM): > 50%
inhibition at 1 µM ([9]; inhibitor concentration 1 μM): > 50%
inhibition at 1 µM [10]: > 50%
inhibition at 1 µM ([11]; inhibitor concentration 1 μM): < 50%
inhibition at 1 µM ([12]; inhibitor concentration 1 μM): > 50%
SMILES: O=C(c1c(F)ccc(NS(=O)(=O)CCCO)c1F)c1c[nH]c2ncc(-c3ccc(Cl)cc3)cc12 [200-17, N-[3-[5-(4-chlorophenyl)-1H-pyrrolo[2,3-b]pyridine-3-carbonyl]-2,4-difluorophenyl]-3-hydroxypropane-1-sulfonamide]

inhibition at 0.1 µM [11]: < 30%
inhibition at 0.1 µM [12]: < 30%
inhibition at 0.1 µM [13]: < 30%
SMILES: O=C(c1c(F)ccc(NS(=O)(=O)CC(O)CO)c1F)c1c[nH]c2ncc(-c3ccc(Cl)cc3)cc12 (stereo not drawn) [200-73, N-[3-[5-(4-chlorophenyl)-lH-pyrrolo [2,3-b]pyridine-3-carbonyl]-2,4-difluorophenyl]-2,3-dihydroxypropane-l-sulfonamide]

— patent US10106538B2, “Inhibitors of protein kinases” (PRINCETON DRUG DISCOVERY INC, priority 2015, dated 2018)
